Legend:
[1] = system: melan-a cells; assay: WST-1 assay for cell viability and cytotoxicity; format: cell-based, murine; details: at the concentrations tested
Description: (§1) Melan-a murine melanocytes (Wellcome Trust Functional Genomics Cell Bank, St. George Hospital, London, UK) were plated one day prior to treatment in 24 well plates at a density of 5×10^4 cells per well in 1 ml of melan-a cell medium (RPMI-1640, 10% Fetal Bovine Serum (FBS), 1% Penicillin/Streptomycin, 100 μM β-mercaptoethanol, 2 mM L-Glutamine and 200 nM Phorbol 12-myristate 13-acetate) in a 10% CO2 incubator maintained at 37° C. After seeding the cells for 24 hours in triplicate, cells were treated as indicated below. After two days of treatment, the culture media was changed and fresh samples were added and incubated overnight. The cells were initially tested for cell viability and cytoxicity using the WST-1 assay (Roche Applied Science). Following the WST-1 assay, the cells were washed in IX PBS and harvested in extraction buffer for melanin isolation and quantification.

[2] = system: Melan-a murine melanocytes; assay: Melanin inhibition assay; format: cell-based; details: melan-a cells; for reduction in melanin content: 100 μg/ml in 0.36% pentylene glycol:0.036% DMSO, FIG. 3
Description: as §1
Cells from each well of the 24 well plate were harvested in cell lysis buffer (1% Triton X 100, 50 mM Tris, 2 mM EDTA, 150 mM NaCl, pH 7.5 supplemented with a complete protease inhibitor cocktail). Cell lysates were centrifuged at 20,000 g for 10 min at 4° C. Protein levels in the supernatant were quantified using a Pierce BCA Protein assay kit (Thermo Scientific Corp). Melanin-containing precipitates were washed in 100 μl of ethanol:ether (1:1) for 10 min at room temperature. The ethanol:ether solution was discarded and the melanin-pellets were dissolved in 200 μl of 2N NaOH in 20% DMSO solution and incubated at 70° C. for 60 min. The resulting melanin extract was analyzed by measuring absorbance at 490 nm. The melanin content in each sample was evaluated by normalizing each sample to the total amount of protein.

CCCCC/C=C\C/C=C\CCCCCCCC(=O)O [linoleic acid]
cytotoxicity to melan-a cells (WST-1) [1]: not cytotoxic | reduction in melanin content [2]: comparatively minor reductions

NC(=S)Nc1ccccc1 [phenylthiourea]
reduction of melanin content ([2]; positive control, FIG. 4 experiment): 70%

CC/C=C\C/C=C\C/C=C\CCCCCCCC(=O)O [α-linolenic acid]
cytotoxicity to melan-a cells (WST-1) [1]: not cytotoxic | reduction in melanin content [2]: comparatively minor reductions

— patent US8916212B2, “Skin whitening composition containing chia seed extract” (Access Business Group International LLC, priority 2011, dated 2014)
